Measured values: patent US5994387A, “Pyrrolidinyl methyl indole salt” (Pfizer Inc., priority 1995, dated 1999)
Where two headings read alike, the source gives them in different places.

What was measured:
Assay type in all cases: physicochemical
[1] = Oxidative stability in 90% PEG 400 with and without hydrogen peroxide; conditions: for Stability to oxidative degradation, in words: qualitative statement, fumarate
Description: (§1) Soft gelatin capsule formulations are an attractive delivery system for Compound (I) as they improve in vivo dissolution and content uniformity on manufacture. The compound (I) can be formulated as a liquid fill soft gelatin capsule. However, oxidative degradation often limits the shelf life of such formulations. PEG 400 is representative of a typical liquid fill diluent used for such a purpose. The following study was designed to determine whether oxidative degradation occurs with Compound (I) in such a formulation, and whether the fumarate salt provides protection against oxidative degradation. 1 mg/mL solutions of Compound (I) as the free base, Compound (I) as the hydrochloride salt and Compound (I) as the fumarate salt were prepared in 90% PEG 400 (BDH) and 10% water (Milli-Q). 10% water was added to the formulations to mimic the ingress of water from the soft gelatin capsule shell. […] However, for ease of solution preparation, the hydrochloride salt was used instead.
Hydrogen peroxide (BDH) to a final concentration of 0.3% w/w was added to the formulations to provide an oxidative stress. A control formulation without hydrogen peroxide was also used in the study. 1 mL of each formulation was sealed into 2 mL HPLC vials ("Cromacol") and placed in a thermostated oven at 40° C. Samples were taken at 1.5 and 3 days and stored frozen (-20° C.) prior to assay. The samples were diluted and analysed using the stability indicating HPLC assay as described above. Degradation was expressed as % Compound (I) remaining.

[2] = Saturated solubility of free base and fumarate salt in water (HPLC); conditions: for solubility at 16 h: saturated solubility in water (MilliQ), 16 hours at room temperature; for Solubility in words: water, qualitative statement, fumarate
Protocol: For both the free base and fumarate salt, approximately 50 mg of solid bulk material was accurately weighed into a 1.5 mL plastic "Eppendorf" tube (Sigma). 0.3 mL of water (MilliQ) was then added to the tubes. The tubes were then vortex mixed at 1,300 rpm ("LKB") for 16 hours at room temperature. The supematant was separated from undissolved material by centrifugation at 13,000 rpm for 20 minutes ("Heraeus Biofuge 13"), then diluted and assayed for Compound (I) by HPLC. This assay used a mobile phase of acetonitrile (20%), water (80%) and trifluoroacetic acid (0.1%) and a 150×4.2 mm "Zorbax SB CN" column at 40° C. with U.V. detection at 220 nm.

[3] = Solid-state (bulk) stability after 9 weeks storage, HPLC; parameters: key to % Degradation (% peak area @ 50° C.-% peak area @ 4° C.): --: No peaks present at this relative retention time; conditions: for Solid state stability in words: qualitative statement, fumarate; for degraded at 1512 h: solid state, read-out: % Degradation (% peak area @ 50° C.-% peak area @ 4° C.)
Protocol: Approximately 1 mg of each of the free base, hydrochloride, hydrobromide and fumarate salts of Compound (I) were accurately weighed into small glass vials. These were stored for 9 weeks at each of 4° C./ambient humidity, 40° C./ambient humidity, 40° C./75% RH and 50° C./ambient humidity. The samples were then assayed using the following stability indicating HPLC method. A mobile phase consisting of 0.05 M potassium dihydrogen orthophosphate adjusted to pH2 with phosphoric acid (90%) and acetonitrile (far UV) (10%), was pumped through a "Zorbax SB-CN" 150×4.6 mm column (40° C.) at a flow rate of 1 ml/min with UV detection at 225 nm.
The samples with the exception of the free base were prepared by dissolving them in the mobile phase in a 25 ml volumetric flask. The free base was dissolved in a few drops of methanol before diluting with the mobile phase.
The stability of the samples was quantified by investigating the appearance of new peaks in the chromatograms of stored samples and the increase in peaks present compared to control samples stored at 4° C.

[4] = Hygroscopicity: moisture uptake in moisture microbalance; conditions: for Hygroscopicity at 30° C. and 90% RH: moisture uptake; for Hygroscopicity in words: qualitative statement, fumarate
Protocol: Approximately 10 mg of each of the free base and fumarate salts of Compound (I) were exposed to 8 different relative humidities (RHs) between 0 and 94% at 30° C. in the Surface Measurement Systems Ltd moisture microbalance. The samples were allowed to reach equilibrium at each of these RHs and the change in weight from the initial value when the sample was first placed in the balance was calculated. The data was used to construct the moisture sorption isotherms for the materials. The hygroscopicity of the materials was compared by calculating the moisture uptake at 90%RH, which was as follows: […]

[5] = Solubility in the 90% PEG 400 / 10% water formulation (observation); conditions: 1 mg/mL in 90% PEG 400 and 10% water
Description: as §1

[6] = relative retention time 0.40, 9 weeks at 50° C.
[7] = relative retention time 0.60, 9 weeks at 50° C.
[8] = relative retention time 0.77, 9 weeks at 50° C.
[9] = relative retention time 0.85, 9 weeks at 50° C.
[10] = relative retention time 0.91, 9 weeks at 50° C.
[11] = relative retention time 1.66, 9 weeks at 50° C.
[12] = relative retention time 1.93, 9 weeks at 50° C.
[13] = relative retention time 0.59, 9 weeks at 50° C.

## CNS(=O)(=O)Cc1ccc2[nH]cc(C[C@H]3CCCN3C)c2c1.O=C(O)/C=C/C(=O)O [Fumarate salt, (R)-5-(methylaminosulphonylmethyl)-3-(N-methylpyrrolidin-2-ylmethyl)-1H-indole fumarate]
[1]; 90% PEG 400, 40° C., both time points (1.5 and 3 days)
  Degradation rate compared with the hydrochloride: significantly lower (analysis of variance p<0.001) than the hydrochloride at both time points
[1]
  Stability to oxidative degradation, in words: significant protection against degradation in the formulation
[1]; listed as fumarate salt of (I)
  Stability to oxidative degradation, in words: unexpectedly improved stability to oxidative degradation
[2]
  solubility at 16 h: 67.5 mg/mL
  Solubility in words: Increased solubility
[2]; listed as fumarate salt of (I)
  Solubility in words: excellent solubility
[3]; 9 weeks at 50° C.
  Solid-state degradation in words: had not degraded at all after 9 weeks 50 °C
[3]
  Solid state stability in words: most stable in the solid state
[3]; listed as fumarate salt of (I)
  Solid state stability in words: excellent solubility and solid state stability
[3]; [6]
  % Degradation (% peak area @ 50° C.-% peak area @ 4° C.): --
[3]; [7]
  % Degradation (% peak area @ 50° C.-% peak area @ 4° C.): --
[3]; [8]
  % Degradation (% peak area @ 50° C.-% peak area @ 4° C.): --
[3]; [9]
  % Degradation (% peak area @ 50° C.-% peak area @ 4° C.): --
[3]; [10]
  % Degradation (% peak area @ 50° C.-% peak area @ 4° C.): --
[3]; [11]
  % Degradation (% peak area @ 50° C.-% peak area @ 4° C.): --
[3]; [12]
  % Degradation (% peak area @ 50° C.-% peak area @ 4° C.): --
[3]; [13]
  degraded at 1512 h: 0%
[4]
  Hygroscopicity at 30° C. and 90% RH: 0.2 % w/w
  Hygroscopicity in words: not accompanied by increased hygroscopicity
[4]; listed as fumarate salt of (I)
  Hygroscopicity in words: non-hygroscopic

## CNS(=O)(=O)Cc1ccc2[nH]cc(C[C@H]3CCCN3C)c2c1 [Free base, (R)-5-(methylaminosulphonylmethyl)-3-(N-methylpyrrolidin-2-ylmethyl)-1H-indole]
[5]
  Solubility in the PEG 400 formulation: not very soluble
[2]
  solubility at 16 h: 0.12 mg/mL
[3]; 9 weeks at 50° C.
  New drug related peaks: 4 new drug related peaks
  Solid-state degradation in words: measurable degradation
[3]; all peaks, 9 weeks at 50° C. vs 4° C., 90720 min
  total increase in % peak area: 0.32%
[3]; [13]
  % Degradation (% peak area @ 50° C.-% peak area @ 4° C.): --
[3]; [8]
  % Degradation (% peak area @ 50° C.-% peak area @ 4° C.): --
[3]; [9]
  % Degradation (% peak area @ 50° C.-% peak area @ 4° C.): --
[3]; [6]
  degraded at 1512 h: 0.05%
[3]; [7]
  degraded at 1512 h: 0.01%
[3]; [10]
  degraded at 1512 h: 0.02%
[3]; [11]
  degraded at 1512 h: 0.17%
[3]; [12]
  degraded at 1512 h: 0.03%
[4]
  Hygroscopicity at 30° C. and 90% RH: 0.2 % w/w
